# Experimental data: US10442807B2, “Aryl substituted bicyclic compounds as herbicides” (FMC Corporation, priority 2015, dated 2019)
# Experiments:
# Assay type in all cases: in vivo
# [1] = test system: ducksalad (Heteranthera limosa); test: Test B flooded paddy test, visual plant response rating; conditions: 250 g ai/ha; applied to paddy water at 2-leaf stage; rated after 13 to 15 days; scale 0 to 100, 0 is no effect, 100 is complete control
# In short: (§1)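 Flooded 3 cm above soil; cpd added to paddy water; depth maintained; greenhouse 13–15 d; visual rating vs control, 0–100 (0 none, 100 complete control); "-" = not tested.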
# [2] = test system: barnyardgrass (Echinochloa crus-galli); test: as above; conditions: 250 g ai/ha; applied to paddy water at 2-leaf stage; rated after 13 to 15 days; scale 0 to 100, 0 is no effect, 100 is complete control
# In short: as §1
# [3] = test system: rice (Oryza sativa); test: as above; conditions: 250 g ai/ha; applied to paddy water at 2-leaf stage; rated after 13 to 15 days; scale 0 to 100, 0 is no effect, 100 is complete control
# In short: as §1
# [4] = test system: sedge, umbrella (small-flower umbrella sedge, Cyperus difformis); test: as above; conditions: 250 g ai/ha; applied to paddy water at 2-leaf stage; rated after 13 to 15 days; scale 0 to 100, 0 is no effect, 100 is complete control
# In short: as §1
# [5] = test system: barnyardgrass (Echinochloa crus-galli); test: Test A preemergence, directed soil spray, visual injury rating; conditions: approx. 10 d, 0 = no effect, 100 = complete control
# In short: (§2)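 In a loam soil and sand blend, either planted seeds got a preemergence directed soil spray or plants at the one- to two-leaf stage (2 to 10 cm tall) were sprayed, using test chemicals in a non-phytotoxic solvent mixture with surfactant. After about 10 d in a greenhouse, injury was visually rated against untreated controls on a 0-100 scale.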
# [6] = test system: pigweed (Amaranthus retroflexus); test: as above; conditions: approx. 10 d, 0 = no effect, 100 = complete control
# In short: as §2
# [7] = test system: kochia (Kochia scoparia); test: as above; conditions: approx. 10 d, 0 = no effect, 100 = complete control
# In short: as §2
# [8] = test system: ryegrass, Italian (Italian ryegrass, Lolium multiflorum); test: as above; conditions: approx. 10 d, 0 = no effect, 100 = complete control
# In short: as §2
# [9] = test system: foxtail, giant (giant foxtail, Setaria faberii); test: as above; conditions: approx. 10 d, 0 = no effect, 100 = complete control
# In short: as §2
# [10] = test system: ragweed (common ragweed, Ambrosia elation); test: as above; conditions: approx. 10 d, 0 = no effect, 100 = complete control
# In short: as §2
# [11] = test system: galium (catchweed bedstraw, Galium aparine); test: Test A postemergence application, visual injury rating; conditions: approx. 10 d, 0 = no effect, 100 = complete control
# In short: as §2
# [12] = test system: barnyardgrass (Echinochloa crus-galli); test: as above; conditions: approx. 10 d, 0 = no effect, 100 = complete control
# In short: as §2
# [13] = test system: pigweed (Amaranthus retroflexus); test: as above; conditions: approx. 10 d, 0 = no effect, 100 = complete control
# In short: as §2
# [14] = test system: kochia (Kochia scoparia); test: as above; conditions: approx. 10 d, 0 = no effect, 100 = complete control
# In short: as §2
# [15] = test system: ryegrass, Italian (Italian ryegrass, Lolium multiflorum); test: as above; conditions: approx. 10 d, 0 = no effect, 100 = complete control
# In short: as §2
# [16] = test system: foxtail, giant (giant foxtail, Setaria faberii); test: as above; conditions: approx. 10 d, 0 = no effect, 100 = complete control
# In short: as §2
# [17] = test system: ragweed (common ragweed, Ambrosia elation); test: as above; conditions: approx. 10 d, 0 = no effect, 100 = complete control
# In short: as §2
# [18] = test system: blackgrass (Alopecurus myosuroides); test: as above; conditions: approx. 10 d, 0 = no effect, 100 = complete control
# In short: as §2
# [19] = test system: wheat (Triticum aestivum); test: as above; conditions: approx. 10 d, 0 = no effect, 100 = complete control
# In short: as §2
# [20] = test system: corn (Zea mays); test: as above; conditions: approx. 10 d, 0 = no effect, 100 = complete control
# In short: as §2
compound,measurement,setting,value
CCc1ccc(C2Cn3cnnc3C2C(=O)Nc2cccc(F)c2C)cc1 (stereo not drawn) [Compound 28],"Plant response rating, Flood, Ducksalad",[1],90
same,"Plant response rating, Flood, Barnyardgrass",[2],40
same,"Plant response rating, Flood, Rice",[3],20
same,"Plant response rating, Flood, Sedge, Umbrella",[4],75
same,Barnyardgrass plant response rating (0 to 100 scale),[5]; 125 g ai/ha,60
same,Barnyardgrass plant response rating (0 to 100 scale),[5]; 500 g ai/ha,90
same,Pigweed plant response rating (0 to 100 scale),[6]; 125 g ai/ha,0
same,Pigweed plant response rating (0 to 100 scale),[6]; 500 g ai/ha,0
same,Kochia plant response rating (0 to 100 scale),[7]; 125 g ai/ha,60
same,Kochia plant response rating (0 to 100 scale),[7]; 500 g ai/ha,60
same,"Ryegrass, Italian plant response rating (0 to 100 scale)",[8]; 125 g ai/ha,0
same,"Ryegrass, Italian plant response rating (0 to 100 scale)",[8]; 500 g ai/ha,30
same,"Foxtail, Giant plant response rating (0 to 100 scale)",[9]; 125 g ai/ha,70
same,"Foxtail, Giant plant response rating (0 to 100 scale)",[9]; 500 g ai/ha,90
same,Ragweed plant response rating (0 to 100 scale),[10]; 125 g ai/ha,0
same,Ragweed plant response rating (0 to 100 scale),[10]; 500 g ai/ha,30
same,Galium plant response rating (0 to 100 scale),[11]; 125 g ai/ha,20
same,Galium plant response rating (0 to 100 scale),[11]; 500 g ai/ha,30
same,Barnyardgrass plant response rating (0 to 100 scale),[12]; 125 g ai/ha,50
same,Barnyardgrass plant response rating (0 to 100 scale),[12]; 500 g ai/ha,80
same,Pigweed plant response rating (0 to 100 scale),[13]; 125 g ai/ha,0
same,Pigweed plant response rating (0 to 100 scale),[13]; 500 g ai/ha,0
same,Kochia plant response rating (0 to 100 scale),[14]; 125 g ai/ha,20
same,Kochia plant response rating (0 to 100 scale),[14]; 500 g ai/ha,50
same,"Ryegrass, Italian plant response rating (0 to 100 scale)",[15]; 125 g ai/ha,0
same,"Ryegrass, Italian plant response rating (0 to 100 scale)",[15]; 500 g ai/ha,50
same,"Foxtail, Giant plant response rating (0 to 100 scale)",[16]; 125 g ai/ha,40
same,"Foxtail, Giant plant response rating (0 to 100 scale)",[16]; 500 g ai/ha,60
same,Ragweed plant response rating (0 to 100 scale),[17]; 125 g ai/ha,0
same,Ragweed plant response rating (0 to 100 scale),[17]; 500 g ai/ha,0
same,Blackgrass plant response rating (0 to 100 scale),[18]; 125 g ai/ha,20
same,Blackgrass plant response rating (0 to 100 scale),[18]; 500 g ai/ha,40
same,Wheat plant response rating (0 to 100 scale),[19]; 125 g ai/ha,0
same,Wheat plant response rating (0 to 100 scale),[19]; 500 g ai/ha,0
same,Corn plant response rating (0 to 100 scale),[20]; 125 g ai/ha,0
same,Corn plant response rating (0 to 100 scale),[20]; 500 g ai/ha,0
